# From patent publication US8592442B2, “Nilotinib HCl crystalline forms” (Teva Pharmaceutical Industries Ltd., priority 2008, dated 2013)
# Structures can show the parent of a compound that is named as a salt.
# Assays:
# [1] = Polymorphic conversion when heated; type: physicochemical
# [2] = as described in WO '870; cited from earlier work
# [3] = as described in WO '870; cited from earlier work; remark: listed apart in the source
smiles,measurement,setting,value
"Cc1cn(-c2cc(NC(=O)c3ccc(C)c(Nc4nccc(-c5cccnc5)n4)c3)cc(C(F)(F)F)c2)cn1 [Nilotinib HCl crystalline form T17, Nilotinib HCl]",conversion to other forms when heated,[1],does not convert to other forms when heated
"Cc1cn(-c2cc(NC(=O)c3ccc(C)c(Nc4nccc(-c5cccnc5)n4)c3)cc(C(F)(F)F)c2)cn1 [Nilotinib HCl form A, Nilotinib HCl]",conversion to other polymorphs when heated,[2],converted to other polymorphs
"Cc1cn(-c2cc(NC(=O)c3ccc(C)c(Nc4nccc(-c5cccnc5)n4)c3)cc(C(F)(F)F)c2)cn1 [Nilotinib HCl form B, Nilotinib HCl]",solubility in IPA,[3],not soluble in IPA
